Test results published in the NIST ThermoML archive (doi:10.1021/je100734t).

Experiment: xn = mol fraction of the nth substance listed
Details: 101 kPa, Liquid; for speed of sound: Pulse-echo method

CCCCCCCCCO [nonan-1-ol] + Cc1ccccc1C
Details	mass density, 293.15 K [kg/m3]	mass density, 303.15 K [kg/m3]	mass density, 313.15 K [kg/m3]	speed of sound, 293.15 K [m/s]	speed of sound, 303.15 K [m/s]	speed of sound, 313.15 K [m/s]
x2 = 0	827.7	820.82	813.88	1381	1347	1314
x2 = 0.0653	830.13	823.15	816.1	1380	1345	1312
x2 = 0.136	832.82	825.73	818.58	1378	1343	1309
x2 = 0.1773	834.44	827.29	820.07	1377	1341	1307
x2 = 0.2281	836.48	829.25	821.95	1375	1339	1304
x2 = 0.2834	838.77	831.45	824.06	1373	1336	1301
x2 = 0.3463	841.46	834.04	826.55	1370	1334	1298
x2 = 0.4203	844.78	837.24	829.63	1368	1330	1295
x2 = 0.4761	847.41	839.78	832.07	1366	1328	1292
x2 = 0.5478	850.96	843.21	835.38	1364	1326	1289
x2 = 0.6327	855.43	847.54	839.57	1362	1323	1286
x2 = 0.7121	859.93	851.92	843.83	1361	1322	1285
x2 = 0.7974	865.14	856.99	848.77	1361	1322	1284
x2 = 0.8695	869.88	861.63	853.31	1363	1322	1284
x2 = 0.9287	874.08	865.73	857.34	1365	1324	1285

CCCCCCCCCO [nonan-1-ol] + Cc1ccc(C)cc1
Details	mass density, 293.15 K [kg/m3]	mass density, 303.15 K [kg/m3]	mass density, 313.15 K [kg/m3]	speed of sound, 293.15 K [m/s]	speed of sound, 303.15 K [m/s]	speed of sound, 313.15 K [m/s]
x2 = 0	827.7	820.82	813.88	1381	1347	1314
x2 = 0.0611	829.31	822.32	815.27	1378	1343	1310
x2 = 0.1108	830.62	823.55	816.41	1375	1340	1306
x2 = 0.1652	832.08	824.91	817.67	1372	1336	1301
x2 = 0.226	833.72	826.44	819.1	1368	1331	1296
x2 = 0.2932	835.56	828.16	820.7	1363	1326	1290
x2 = 0.3651	837.59	830.07	822.47	1357	1320	1284
x2 = 0.4248	839.34	831.7	824	1353	1315	1278
x2 = 0.5023	841.69	833.91	826.07	1347	1308	1272
x2 = 0.558	843.46	835.58	827.63	1343	1304	1267
x2 = 0.6359	846.06	838.04	829.95	1338	1299	1261
x2 = 0.7123	848.77	840.61	832.39	1334	1294	1256
x2 = 0.7744	851.12	842.84	834.5	1332	1291	1252
x2 = 0.8514	854.23	845.81	837.33	1330	1289	1249
x2 = 0.9286	857.59	849.02	840.41	1329	1288	1248

CCCCCCCCCCO [decan-1-ol] + Cc1ccc(C)cc1
Details	mass density, 293.15 K [kg/m3]	mass density, 303.15 K [kg/m3]	mass density, 313.15 K [kg/m3]	speed of sound, 293.15 K [m/s]	speed of sound, 303.15 K [m/s]	speed of sound, 313.15 K [m/s]
x2 = 0	829.98	823.1	816.27	1396	1362	1329
x2 = 0.0806	831.76	824.74	817.76	1391	1356	1322
x2 = 0.1731	833.82	826.66	819.54	1385	1349	1314
x2 = 0.2506	835.6	828.33	821.08	1378	1342	1307
x2 = 0.3197	837.25	829.88	822.5	1373	1336	1300
x2 = 0.3693	838.49	831.04	823.57	1368	1331	1295
x2 = 0.4336	840.17	832.6	825.02	1362	1325	1289
x2 = 0.4929	841.79	834.12	826.43	1357	1320	1283
x2 = 0.5771	844.26	836.42	828.58	1350	1312	1275
x2 = 0.662	846.98	838.96	830.98	1344	1305	1267
x2 = 0.7265	849.2	841.06	832.94	1340	1300	1262
x2 = 0.7763	851.04	842.8	834.58	1337	1297	1258
x2 = 0.8293	853.13	844.77	836.44	1335	1294	1255
x2 = 0.8891	855.65	847.2	838.71	1333	1292	1252
x2 = 0.9369	857.84	849.27	840.68	1332	1290	1250
